Test: Binding affinity was determined towards Opioid receptor delta 1 using [3H]naltrindole as radioligand

## Nc1ccc2c3c1O[C@H]1C(=O)CC[C@@]4(O)[C@@H](C2)N(CC2CC2)CC[C@]314 [10-amino-4-cyclopropylmethyl-17-hydroxy-(1S,5R,13R,17S)-12-oxa-4-azapentacyclo[9.6.1.01,13.05,17.07,18]octadeca-7(18),8,10-trien-14-one]
  Ki: 880 nM

## CC1[C@H]2Cc3ccc(NC=O)cc3[C@]1(C)CCN2CC1CC1 (stereo partly drawn) [(1R,9R,13R)-10-(cyclopropylmethyl)-1,13-dimethyl-10-azatricyclo[7.3.1.0~2,7~]trideca-2,4,6-trien-4-ylformamide]
  Ki: 9.8 nM

## C[C@@H]1C2Cc3ccc(NC=O)cc3[C@]1(C)CCN2CC1CC1 [(1S,9S,13S)-10-(cyclopropylmethyl)-1,13-dimethyl-10-azatricyclo[7.3.1.0~2,7~]trideca-2,4,6-trien-4-ylformamide]
  Ki: > 10000 nM

## C[C@H]1C2Cc3ccc(N(C)C=O)cc3[C@@]1(C)CCN2CC1CC1 [N-((6S,11R)-3-Cyclopropylmethyl-6,11-dimethyl-1,2,3,4,5,6-hexahydro-2,6-methano-benzo[d]azocin-8-yl)-N-methyl-formamide]
  Ki: 6200 nM

## CC(=O)Nc1ccc2c(c1)[C@@]1(C)CCN(CC3CC3)C(C2)[C@@H]1C [N-((6S,11R)-3-Cyclopropylmethyl-6,11-dimethyl-1,2,3,4,5,6-hexahydro-2,6-methano-benzo[d]azocin-8-yl)-acetamide]
  Ki: 1700 nM

## C[C@H]1C2Cc3ccc(NC(=O)c4ccccc4)cc3[C@@]1(C)CCN2CC1CC1 [N-((6S,11R)-3-Cyclopropylmethyl-6,11-dimethyl-1,2,3,4,5,6-hexahydro-2,6-methano-benzo[d]azocin-8-yl)-benzamide]
  Ki: 2400 nM

## C[C@H]1C2Cc3ccc(NC=O)cc3[C@@]1(C)CCN2CC1CC1 [N-((6S,11R)-3-Cyclopropylmethyl-6,11-dimethyl-1,2,3,4,5,6-hexahydro-2,6-methano-benzo[d]azocin-8-yl)-formamide]
  Ki: 37 nM

## CC[C@@]12CCN(CC3CC3)C(C(=O)c3ccc(NC=O)cc31)[C@@H]2C [N-((6S,11R)-3-Cyclopropylmethyl-6-ethyl-11-methyl-1-oxo-1,2,3,4,5,6-hexahydro-2,6-methano-benzo[d]azocin-8-yl)-formamide]
  Ki: 52 nM

## O=CNc1ccc2c3c1O[C@H]1C(=O)CC[C@@]4(O)[C@@H](C2)N(CC2CC2)CC[C@]314 [N-[4-cyclopropylmethyl-17-hydroxy-14-oxo-(1S,5R,17S)-12-oxa-4-azapentacyclo[9.6.1.01,13.05,17.07,18]octadeca-7(18),8,10-trien-10-yl]methanamide]
  Ki: 420 nM

— BindingDB's records for doi:10.1016/s0960-894x(03)00295-6 (Rensselaer Polytechnic Institute, 2003)
